Experimental data reported in US20060009433A1, “Neuroprotective spirostenol pharmaceutical compositions” (priority 2003, published 2006).

Key:
Aβ25-35 = Aβ25-35 (Homo sapiens, UniProt P05067); assay: CPBBA, Aβ25-35; type: binding
Experimental: At the end of the incubation time, samples were separated by 1.5% agarose (Type I-B) gel electrophoresis and transferred to nitrocellulose membrane (Schleicher & Schuell, Keene, N.H.) in 10×SSC buffer. The membrane was exposed to tritium-sensitive screen and analyzed by phosphoimaging using the Cyclone Storage phosphor system (Packard BioScience, Meridien, Conn.). Image-densitometric analysis was performed using the OptiQuant software (Packard). […] Low molecular weight unincorporated 22i-hydroxycholesterol is separated and eliminated during electrophoresis.

NT2 cells = assay: Expression of neurofilament proteins NF70, NF145, NF200 by NT2 cells (immunoblot); type: cell-based, human; conditions: 6 days
Experimental: Cells were fixed with newly prepared 3.7% formaldehyde for 15 minutes and blocked by blocking reagent (Zymed Laboratories, San Francisco, Calif., USA). Inuunostaining was performed using rabbit anti-NF200, anti-NF145 and anti-NF70 (all at 1:200), and goat anti-GFRα1, anti-GFRα2 and anti-GFRα3 (all at 1:100); Santa Cruz Biotechnology (Santa Cruz, Calif., USA). All antibodies were used at 200 μg/ml. After overnight incubation at 4° C., the immunoreactivity was detected using horseradish peroxidase-conjugated anti-rabbit or anti-mouse IgG for 1 hour at room temperature and visualized using AEC.
Cells were then washed with phosphate-buffered saline (PBS) and lysed with loading buffer. Proteins were resolved by sodium dodecyl sulfate polyacrylamide gel electrophoresis (SDS-PAGE) on 4-20% gradient acrylamide-bis-acrylamide gel at 125 V for 2 hours and electrotransferred onto nitrocellulose membranes. After blocking with 5% nonfat milk, the membranes were subjected to immunoblot analysis by incubation overnight with rabbit anti-NF200, anti-NF145 and anti-NF70 (all at 1:4000) (Chemicon International, Temecula, Calif., USA) and goat anti-GFRα1, anti-GFRα2 and anti-GFRα3 (all at 1:500) (200 μg/ml; Santa Cruz Biotechnology, Inc., Santa Cruz, Calif., USA), goat anti-rabbit or rabbit anti-goat IgG-horseradish peroxidase being used as the secondary antibody (1:5000) (Zymed Laboratories, San Francisco, Calif., USA). Protein bands were visualized using ECL reagents (Amersham Pharmacia Biotech, Piscataway, N.J., USA). Image-densitometric analyses of the immunoreactive protein bands were performed using OptiQuant-image analysis software (Packard BioScience, Meriden, Conn., USA). Glyceraldehyde-3-phosphate dehydrogenase (GAPPH) served as an internal standard.

Q: Which “binding to Aβ25-35” value (Aβ25-35) does the source give for CC(C)CC[C@@H](O)[C@@H](C)[C@H]1CC[C@H]2[C@@H]3CC=C4C[C@@H](O)CC[C@]4(C)[C@H]3CC[C@]12C [SP222, 22R-hydroxycholesterol] here?
A: Its value is “did not bind”.

Q: What about the NF70 protein level (NT2 cells; 1 μM) of the same compound?
A: The NF70 protein level was 83 % of the control level.

Q: And the NF145 expression (NT2 cells; 5 μM)?
A: The NF145 expression was “increase that was apparent at 5 μM”.

Q: What about the NF200 protein expression (NT2 cells; 5 μM) of the same compound?
A: Its NF200 protein expression is 210 % of the control value.

Q: And the NF145 expression (NT2 cells; 25 μM)?
A: The NF145 expression was 56 % of control levels.

Q: What about the NF200 protein expression (NT2 cells; 25 μM) of the same compound?
A: The NF200 protein expression was 180 % of the control value.

Q: And the NF70 protein level (NT2 cells; 50 μM)?
A: The NF70 protein level was 18 % of the control level.
